In PubChem BioAssay (NCI):
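1) Cells in 96-well plates. 2) Compound, 48 h, 5 concentrations. 3) Linear interpolation between surrounding doses. 4) Unreached endpoint = highest concentration. At the TGI there is no net growth.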

What was measured:
Assay in all cases: NCI tumour cell line growth inhibition, 48 h
786-0 renal = test system: 786-0 renal
A498 renal = test system: A498 renal
A549 NSCLC = test system: A549 NSCLC
ACHN renal = test system: ACHN renal
BT-549 breast = test system: BT-549 breast
CAKI-1 renal = test system: CAKI-1 renal
COLO 205 colon = test system: COLO 205 colon
DU-145 prostate = test system: DU-145 prostate
EKVX NSCLC = test system: EKVX NSCLC
HCC-2998 colon = test system: HCC-2998 colon
HCT-116 colon = test system: HCT-116 colon
HCT-15 colon = test system: HCT-15 colon
HL-60(TB) leukemia = test system: HL-60(TB) leukemia
HOP-62 NSCLC = test system: HOP-62 NSCLC
HOP-92 NSCLC = test system: HOP-92 NSCLC
HS 578T breast = test system: HS 578T breast
HT29 colon = test system: HT29 colon
IGROV1 ovarian = test system: IGROV1 ovarian
K-562 leukemia = test system: K-562 leukemia
KM12 colon = test system: KM12 colon
LOX IMVI melanoma = test system: LOX IMVI melanoma
M14 melanoma = test system: M14 melanoma
MALME-3M melanoma = test system: MALME-3M melanoma
MCF7 breast = test system: MCF7 breast
MDA-MB-231 breast = test system: MDA-MB-231 breast
MDA-MB-435 = test system: MDA-MB-435
MDA-N = test system: MDA-N
NCI-H226 lung = test system: NCI-H226 lung
NCI-H23 lung = test system: NCI-H23 lung
NCI-H460 lung = test system: NCI-H460 lung
NCI-H522 lung = test system: NCI-H522 lung
NCI/ADR-RES ovarian = test system: NCI/ADR-RES ovarian
OVCAR-3 ovarian = test system: OVCAR-3 ovarian
OVCAR-4 ovarian = test system: OVCAR-4 ovarian
OVCAR-5 ovarian = test system: OVCAR-5 ovarian
OVCAR-8 ovarian = test system: OVCAR-8 ovarian
PC-3 prostate = test system: PC-3 prostate
RPMI-8226 leukemia = test system: RPMI-8226 leukemia
RXF 393 renal = test system: RXF 393 renal
SF-268 CNS = test system: SF-268 CNS
SF-295 CNS = test system: SF-295 CNS
SF-539 CNS = test system: SF-539 CNS
SK-MEL-2 melanoma = test system: SK-MEL-2 melanoma
SK-MEL-28 melanoma = test system: SK-MEL-28 melanoma
SK-MEL-5 melanoma = test system: SK-MEL-5 melanoma
SK-OV-3 ovarian = test system: SK-OV-3 ovarian
SN12C renal = test system: SN12C renal
SNB-19 CNS = test system: SNB-19 CNS
SNB-75 CNS = test system: SNB-75 CNS
SW-620 colon = test system: SW-620 colon
T-47D breast = test system: T-47D breast
TK-10 renal = test system: TK-10 renal
U251 CNS = test system: U251 CNS
UACC-257 melanoma = test system: UACC-257 melanoma
UACC-62 melanoma = test system: UACC-62 melanoma
UO-31 renal = test system: UO-31 renal
CCRF-CEM leukemia = test system: CCRF-CEM leukemia
MOLT-4 leukemia = test system: MOLT-4 leukemia
SR leukemia = test system: SR leukemia

Work on `CC(C)NC(=O)CN1CCN(c2c(O)c3c(c(O)c2Cl)C(=O)C=CC3=O)CC1` yielded a TGI (786-0 renal) of 6.14 µM, a TGI (A498 renal) of 7.29 µM and a TGI (A549 NSCLC) of 20.3 µM. It also gave a TGI (ACHN renal) of 4.9 µM, a TGI (BT-549 breast) of 2.85 µM and a TGI (CAKI-1 renal) of 5 µM. It also gave a TGI (COLO 205 colon) of 2.89 µM, a TGI (DU-145 prostate) of 7.31 µM and a TGI (EKVX NSCLC) of 12 µM. It also gave a TGI (HCC-2998 colon) of 10 µM, a TGI (HCT-116 colon) of 2.61 µM and a TGI (HCT-15 colon) of 3.19 µM. For the same molecule, the TGI (HL-60(TB) leukemia) was 0.642 µM, the TGI (HOP-62 NSCLC) was 18.6 µM and the TGI (HOP-92 NSCLC) was 4.16 µM. For the same molecule, the TGI (HS 578T breast) was 6.42 µM, the TGI (HT29 colon) was 2.58 µM and the TGI (IGROV1 ovarian) was 4.66 µM. It also gave a TGI (K-562 leukemia) of over 100 µM, a TGI (KM12 colon) of 18.4 µM and a TGI (LOX IMVI melanoma) of 1.92 µM. The TGI (M14 melanoma) was 2.93 µM, the TGI (MALME-3M melanoma) was 2.7 µM and the TGI (MCF7 breast) was 3.47 µM. The TGI (MDA-MB-231 breast) was 4.26 µM, the TGI (MDA-MB-435) was 3.38 µM and the TGI (MDA-N) was 3.43 µM. For the same molecule, the TGI (NCI-H226 lung) was 41.5 µM, the TGI (NCI-H23 lung) was 3.02 µM and the TGI (NCI-H460 lung) was 22.1 µM. For the same molecule, the TGI (NCI-H522 lung) was 3.33 µM, the TGI (NCI/ADR-RES ovarian) was 10.7 µM and the TGI (OVCAR-3 ovarian) was 2.97 µM. The TGI (OVCAR-4 ovarian) was 3.12 µM, the TGI (OVCAR-5 ovarian) was 6.54 µM and the TGI (OVCAR-8 ovarian) was 3.81 µM. For the same molecule, the TGI (PC-3 prostate) was 4.75 µM, the TGI (RPMI-8226 leukemia) was 7.27 µM and the TGI (RXF 393 renal) was 2.92 µM. For the same molecule, the TGI (SF-268 CNS) was 4.04 µM, the TGI (SF-295 CNS) was 19.7 µM and the TGI (SF-539 CNS) was 3.66 µM. It also gave a TGI (SK-MEL-2 melanoma) of 3.1 µM, a TGI (SK-MEL-28 melanoma) of 3.17 µM and a TGI (SK-MEL-5 melanoma) of 3.45 µM. The TGI (SK-OV-3 ovarian) was 24.3 µM, the TGI (SN12C renal) was 3.28 µM and the TGI (SNB-19 CNS) was 26.9 µM. For the same molecule, the TGI (SNB-75 CNS) was 11.3 µM, the TGI (SW-620 colon) was 1.92 µM and the TGI (T-47D breast) was 3.67 µM. It also gave a TGI (TK-10 renal) of 4.27 µM, a TGI (U251 CNS) of 10.3 µM and a TGI (UACC-257 melanoma) of 3.25 µM. It also gave a TGI (UACC-62 melanoma) of 3.22 µM and a TGI (UO-31 renal) of 2.64 µM.
`CC(C)(C)c1cc(O)ccc1O` showed a TGI (786-0 renal) of over 67 µM, a TGI (A498 renal) of over 100 µM and a TGI (A549 NSCLC) of over 100 µM. It also gave a TGI (ACHN renal) of over 100 µM, a TGI (BT-549 breast) of over 100 µM and a TGI (CAKI-1 renal) of over 70.4 µM. For the same molecule, the TGI (CCRF-CEM leukemia) was 33.2 µM, the TGI (COLO 205 colon) was over 100 µM and the TGI (DU-145 prostate) was 23.4 µM. The TGI (EKVX NSCLC) was over 100 µM, the TGI (HCC-2998 colon) was over 17.6 µM and the TGI (HCT-116 colon) was over 72.9 µM. It also gave a TGI (HCT-15 colon) of over 100 µM, a TGI (HL-60(TB) leukemia) of 26.7 µM and a TGI (HOP-62 NSCLC) of over 100 µM. The TGI (HOP-92 NSCLC) was over 79.2 µM, the TGI (HS 578T breast) was over 100 µM and the TGI (HT29 colon) was over 100 µM. For the same molecule, the TGI (IGROV1 ovarian) was over 100 µM, the TGI (K-562 leukemia) was over 100 µM and the TGI (KM12 colon) was over 100 µM. It also gave a TGI (LOX IMVI melanoma) of over 74.6 µM, a TGI (M14 melanoma) of over 100 µM and a TGI (MALME-3M melanoma) of over 27.6 µM. For the same molecule, the TGI (MCF7 breast) was over 100 µM, the TGI (MDA-MB-231 breast) was 4.97 µM and the TGI (MDA-MB-435) was over 71.2 µM. It also gave a TGI (MDA-N) of over 100 µM, a TGI (MOLT-4 leukemia) of 27.1 µM and a TGI (NCI-H226 lung) of over 100 µM. It also gave a TGI (NCI-H23 lung) of over 100 µM, a TGI (NCI-H460 lung) of over 21.6 µM and a TGI (NCI-H522 lung) of over 39.8 µM. For the same molecule, the TGI (NCI/ADR-RES ovarian) was over 100 µM, the TGI (OVCAR-3 ovarian) was over 70 µM and the TGI (OVCAR-4 ovarian) was over 71.5 µM. For the same molecule, the TGI (OVCAR-5 ovarian) was over 100 µM, the TGI (OVCAR-8 ovarian) was over 84.2 µM and the TGI (PC-3 prostate) was 5.3 µM. The TGI (RPMI-8226 leukemia) was over 93.7 µM, the TGI (SF-268 CNS) was over 51.1 µM and the TGI (SF-295 CNS) was over 100 µM. For the same molecule, the TGI (SF-539 CNS) was over 100 µM, the TGI (SK-MEL-2 melanoma) was 3.18 µM and the TGI (SK-MEL-28 melanoma) was over 100 µM. It also gave a TGI (SK-MEL-5 melanoma) of over 100 µM, a TGI (SK-OV-3 ovarian) of over 100 µM and a TGI (SN12C renal) of over 100 µM. The TGI (SNB-19 CNS) was over 100 µM, the TGI (SNB-75 CNS) was 25.2 µM and the TGI (SR leukemia) was 26.6 µM. The TGI (SW-620 colon) was over 100 µM, the TGI (T-47D breast) was 41.9 µM and the TGI (TK-10 renal) was 22.2 µM. The TGI (U251 CNS) was 5.56 µM, the TGI (UACC-257 melanoma) was over 21.7 µM and the TGI (UACC-62 melanoma) was over 100 µM. It also gave a TGI (UO-31 renal) of over 72.8 µM.
